In patent US11299478B2, “2-cyanopyrimidin-4-yl carbamate or urea derivative or salt thereof, and pharmaceutical composition including same” (HANLIM PHARMACEUTICAL CO., LTD., priority 2018, dated 2022):

Assays:
Assay type in all cases: biochemical
[1] = target: cathepsin S (Homo sapiens, UniProt P25774); test: Inhibitory activity assay against cathepsin S (enzyme assay); conditions: Z-Phe-Arg-AMC 70 μM, enzyme 3 nM, pH 6.5, 45 minutes
How it was run: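 Cathepsin S (3 nM final) with Z-Phe-Arg-AMC substrate (70 μM final) in pH 6.5 buffer of 50 mM MES, 2.5 mM DTT, 1.0 mM EDTA, 0.001% BSA, 10% DMSO; compound 10.0 μM down to 0.000508 μM, 10 points. Fluorescence (ex 340/em 460 nm) after 45 min; IC50 by 4-parameter logistic fit.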

[2] = target: T1, cathepsin K (Homo sapiens, UniProt P43235); test: Inhibitory activity assay against cathepsin K (enzyme assay); conditions: Z-Phe-Arg-AMC 10 μM, enzyme 1 nM, pH 5.5, 30 minutes
T1 sequence (P43235 115-329): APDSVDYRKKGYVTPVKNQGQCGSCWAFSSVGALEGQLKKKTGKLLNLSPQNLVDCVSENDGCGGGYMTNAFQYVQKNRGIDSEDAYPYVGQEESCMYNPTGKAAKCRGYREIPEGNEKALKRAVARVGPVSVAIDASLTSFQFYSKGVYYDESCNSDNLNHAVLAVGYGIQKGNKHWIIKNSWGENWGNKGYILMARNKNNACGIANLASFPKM
How it was run: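 Fluorogenic assay with 1 nM cathepsin K and 10 μM Z-Phe-Arg-AMC in pH 5.5 buffer (50 mM MES, 2 mM DTT, 2.5 mM EDTA, 0.01% Triton X-100, 10% DMSO). Ten compound concentrations, 10.0 to 0.000508 μM; 30 min reaction, ex 355/em 460 nm; IC50 by 4-parameter logistic fit.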

[3] = target: cathepsin L (Homo sapiens, UniProt P07711); test: Inhibitory activity assay against cathepsin L (enzyme assay); conditions: Z-Phe-Arg-AMC 2 μM, enzyme 3 nM, pH 5.5, 30 minutes
How it was run: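 Enzyme at 3 nM with 2 μM Z-Phe-Arg-AMC in 50 mM MES pH 5.5, 2.5 mM DTT, 2.5 mM EDTA, 0.005% Polysorbate 20, 10% DMSO; 30 min reaction, AMC fluorescence 340/460 nm. Ten-point series 10.0 μM to 0.000508 μM; IC50 by 4-parameter logistic fit.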

[4] = target: cathepsin B (Homo sapiens, UniProt P07858); test: Inhibitory activity assay against cathepsin B (enzyme assay); conditions: Z-Arg-Arg-AMC 40 μM, enzyme 1 nM, pH 6.0, 90 minutes
How it was run: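 1 nM enzyme with 40 μM Z-Arg-Arg-AMC and compound (10.0 μM down to 0.000508 μM, 10 points) in pH 6.0 buffer of 50 mM MES, 5 mM DTT, 2.5 mM EDTA, 0.005% Polysorbate 20, 10% DMSO. Fluorescence (340/460 nm) read after 90 min; IC50 by 4-parameter logistic fit.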

cathepsin L, sequence (P07711 114-333, species assumed): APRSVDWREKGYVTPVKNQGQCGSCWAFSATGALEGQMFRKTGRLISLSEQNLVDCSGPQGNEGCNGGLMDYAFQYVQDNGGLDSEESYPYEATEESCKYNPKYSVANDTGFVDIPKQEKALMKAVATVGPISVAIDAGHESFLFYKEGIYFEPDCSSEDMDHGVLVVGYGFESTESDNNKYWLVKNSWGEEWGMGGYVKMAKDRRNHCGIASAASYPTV
cathepsin S, sequence (P25774 115-331, species assumed): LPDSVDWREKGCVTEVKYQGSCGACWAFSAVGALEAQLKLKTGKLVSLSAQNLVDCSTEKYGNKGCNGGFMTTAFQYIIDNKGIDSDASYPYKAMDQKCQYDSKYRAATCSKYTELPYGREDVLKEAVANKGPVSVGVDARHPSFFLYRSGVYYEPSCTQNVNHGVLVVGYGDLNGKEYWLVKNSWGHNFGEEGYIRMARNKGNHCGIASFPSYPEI

SMILES	IC50 [1] [nM]	IC50 [2] [nM]	IC50 [3] [nM]	IC50 [4] [nM]
CC(C)N1CCN(c2ccc(-c3ccc(CNC(=O)NC4(c5ccnc(C#N)n5)CCCCC4)cc3)cc2)CC1 [Example 181, 1-(1-(2-cyanopyrimidin-4-yl)cyclohexyl)-3-((4′-(4-isopropylpiperazin-1-yl)-[1,1′-biphenyl]-4-yl)methyl)urea]	> 10000	1.9	> 10000	> 10000
N#Cc1nccc(C2(NC(=O)Nc3ccc(C#CCCC(=O)O)cc3)CCCCC2)n1 [Example 182, 5-(4-(3-(1-(2-cyanopyrimidin-4-yl)cyclohexyl)ureido)phenyl)pent-4-ynoic acid]	> 10000	10.5	> 10000	> 10000
N#Cc1nccc(C2(NC(=O)Nc3ccc(C#Cc4ccc(CO)cc4)cc3)CCCCC2)n1 [Example 183, 1-(1-(2-cyanopyrimidin-4-yl)cyclohexyl)-3-(4-((4-(hydroxymethyl)phenyl)ethynyl)phenyl)urea]	> 10000	22	> 10000	> 10000
N#Cc1nccc(C2(NC(=O)Nc3ccc(-c4ccc(C(=O)NCCn5nccn5)cc4)c(F)c3)CCCCC2)n1 [Example 188, N-(2-(2H-1,2,3-triazol-2-yl)ethyl)-4′-(3-(1-(2-cyanopyrimidin-4-yl)cyclohexyl)ureido)-2′-fluoro-[1,1′-biphenyl]-4-carboxamide]	4330	16.1	> 10000	> 10000
CNCCOc1ccc(-c2ccc(NC(=O)NC3(c4ccnc(C#N)n4)CCCCC3)cc2)cc1 [Example 191, 1-(1-(2-cyanopyrimidin-4-yl)cyclohexyl)-3-(4′-(2-(methylamino)ethoxy)-[1,1′-biphenyl]-4-yl)urea]	> 10000	0.1	> 10000	4760

Other lines, results leading:

IC50 [1] [nM]	IC50 [2] [nM]	IC50 [3] [nM]	IC50 [4] [nM]	SMILES
8050	0.2	2420	2150	N#Cc1nccc(C2(NC(=O)Nc3ccc(-c4ccc(C(=O)NCCc5c[nH]cn5)cc4)cc3)CCCCC2)n1 [Example 184, N-(2-(1H-imidazol-4-yl)ethyl)-4′-(3-(1-(2-cyanopyrimidin-4-yl)cyclohexyl)ureido)-[1,1′-biphenyl]-4-carboxamide]
> 10000	0.1	4400	1760	N#Cc1nccc(C2(NC(=O)Nc3ccc(-c4ccc(C(=O)NCCn5ccnc5)cc4)cc3)CCCCC2)n1 [Example 185, N-(2-(1H-imidazol-1-yl)ethyl)-4′-(3-(1-(2-cyanopyrimidin-4-yl)cyclohexyl)ureido)-[1,1′-biphenyl]-4-carboxamide]
> 10000	0.1	2020	2740	N#Cc1nccc(C2(NC(=O)Nc3ccc(-c4ccc(C(=O)NCCn5ccnc5)cc4)c(F)c3)CCCCC2)n1 [Example 186, N-(2-(1H-imidazol-1-yl)ethyl)-4′-(3-(1-(2-cyanopyrimidin-4-yl)cyclohexyl)ureido)-2′-fluoro-[1,1′-biphenyl]-4-carboxamide]
> 10000	0.6	1190	5400	N#Cc1nccc(C2(NC(=O)Nc3ccc(-c4ccc(C(=O)NCCc5c[nH]cn5)cc4)c(C(F)(F)F)c3)CCCCC2)n1 [Example 189, N-(2-(1H-imidazol-4-yl)ethyl)-4′-(3-(1-(2-cyanopyrimidin-4-yl)cyclohexyl)ureido)-2′-(trifluoromethyl)-[1,1′-biphenyl]-4-carboxamide]
> 10000	0.3	> 10000	7870	N#Cc1nccc(C2(NC(=O)Nc3ccc(-c4ccc(OCCN)cc4)cc3)CCCCC2)n1 [Example 190, 1-(4′-(2-aminoethoxy)-[1,1′-biphenyl]-4-yl)-3-(1-(2-cyanopyrimidin-4-yl)cyclohexyl)urea]
